Measured values published in the NIST ThermoML archive (doi:10.1016/j.jct.2005.06.011).
± gives the expanded uncertainty stated by the source.

Legend:
[1] = xn = mol fraction of the nth substance listed; conditions: 101 kPa, Liquid; for speed of sound: Linear variable-path acoustic interferometer
[2] = refractive index (Na D-line) (dimensionless); xn = mol fraction of the nth substance listed; conditions: 101 kPa, Liquid

CC1CCCCC1 [methylcyclohexane] + CC(C)CO
Conditions | mass density, 298.15 K [kg/m3] | mass density, 303.15 K [kg/m3] | mass density, 308.15 K [kg/m3] | refractive index, 298.15 K | refractive index, 303.15 K | refractive index, 308.15 K | speed of sound, 298.15 K [m/s] | viscosity, 298.15 K [mPa·s] | viscosity, 303.15 K [mPa·s] | viscosity, 308.15 K [mPa·s]
[1], x1 = 0.1003 | 802.66 ± 8.1 | 798.47 ± 8 | 794.29 ± 8 | – | – | – | 1175 ± 4 | 2.499 ± 0.031 | 2.17 ± 0.027 | 1.841 ± 0.023
[1], x1 = 0.2006 | 796.44 ± 8 | 792.18 ± 7.9 | 787.91 ± 7.9 | – | – | – | 1179 ± 4 | 2.037 ± 0.025 | 1.79 ± 0.023 | 1.542 ± 0.02
[1], x1 = 0.3008 | 790.71 ± 7.9 | 786.35 ± 7.9 | 782.02 ± 7.8 | – | – | – | 1183 ± 4 | 1.63 ± 0.021 | 1.44 ± 0.018 | 1.248 ± 0.016
[1], x1 = 0.4037 | 785.47 ± 7.9 | 781.09 ± 7.8 | 776.69 ± 7.8 | – | – | – | 1188 ± 4 | 1.359 ± 0.018 | 1.209 ± 0.016 | 1.058 ± 0.014
[1], x1 = 0.5066 | 780.72 ± 7.8 | 776.29 ± 7.8 | 771.86 ± 7.7 | – | – | – | 1193 ± 4 | 1.12 ± 0.015 | 1.017 ± 0.013 | 0.9138 ± 0.012
[1], x1 = 0.6052 | 776.53 ± 7.8 | 772.08 ± 7.7 | 767.64 ± 7.7 | – | – | – | 1198 ± 4 | 0.9911 ± 0.013 | 0.906 ± 0.012 | 0.821 ± 0.011
[1], x1 = 0.7038 | 772.84 ± 7.8 | 768.37 ± 7.7 | 763.92 ± 7.7 | – | – | – | 1202 ± 4 | 0.8637 ± 0.012 | 0.7964 ± 0.011 | 0.729 ± 0.01
[1], x1 = 0.8025 | 769.44 ± 7.7 | 764.99 ± 7.7 | 760.54 ± 7.6 | – | – | – | 1207 ± 4 | 0.7897 ± 0.011 | 0.7317 ± 0.01 | 0.6738 ± 0.0095
[1], x1 = 0.9011 | 766.63 ± 7.7 | 762.18 ± 7.7 | 757.75 ± 7.6 | – | – | – | 1212 ± 4 | 0.7162 ± 0.01 | 0.6676 ± 0.0094 | 0.6189 ± 0.0088
[1], x1 = 1 | 764.99 ± 7.7 | 760.66 ± 7.6 | 756.3 ± 7.6 | – | – | – | 1217 ± 4 | 0.6757 ± 0.0095 | 0.631 ± 0.0089 | 0.5902 ± 0.0085
[2], x1 = 0.1003 | – | – | – | 1.397 ± 0.0013 | 1.3945 ± 0.0013 | 1.392 ± 0.0013 | – | – | – | –
[2], x1 = 0.2006 | – | – | – | 1.4 ± 0.0013 | 1.3975 ± 0.0013 | 1.395 ± 0.0013 | – | – | – | –
[2], x1 = 0.3008 | – | – | – | 1.4031 ± 0.0013 | 1.4005 ± 0.0013 | 1.3979 ± 0.0013 | – | – | – | –
[2], x1 = 0.4037 | – | – | – | 1.4059 ± 0.0013 | 1.4033 ± 0.0013 | 1.4007 ± 0.0013 | – | – | – | –
[2], x1 = 0.5066 | – | – | – | 1.4088 ± 0.0013 | 1.4061 ± 0.0013 | 1.4034 ± 0.0013 | – | – | – | –
[2], x1 = 0.6052 | – | – | – | 1.4114 ± 0.0013 | 1.4088 ± 0.0013 | 1.4062 ± 0.0013 | – | – | – | –
[2], x1 = 0.7038 | – | – | – | 1.4141 ± 0.0013 | 1.4115 ± 0.0013 | 1.409 ± 0.0013 | – | – | – | –
[2], x1 = 0.8025 | – | – | – | 1.4167 ± 0.0013 | 1.414 ± 0.0013 | 1.4113 ± 0.0013 | – | – | – | –
[2], x1 = 0.9011 | – | – | – | 1.4194 ± 0.0013 | 1.4165 ± 0.0013 | 1.4135 ± 0.0013 | – | – | – | –
[2], x1 = 1 | – | – | – | 1.4217 ± 0.0013 | 1.4192 ± 0.0013 | 1.4163 ± 0.0013 | – | – | – | –
